Experimental data as given in publication PMC9403976, “Elucidating the path to Plasmodium prolyl-tRNA synthetase inhibitors that overcome halofuginone resistance” (Nature Communications, 2022).
Where “and” joins values, the source holds several entries; their conditions need not be identical. Equal entries are not always repeated. Where two headings read alike, the source gives them in different places.

Tests used:
[1] = target: HsProRS (Homo sapiens, UniProt P07814); assay: TR-FRET ligand displacement assay with tracer MAT379 (CoraFluor-1-Halo and anti-His6 antibody formats); assay type: binding; design: made in house; host or cells: E. coli SoluBL-21; conditions: for TR-FRET dose-response, normalized signal (SI Fig 11): individual replicates; for TR-FRET dose-response, normalized signal (SI Fig 11) / normalized TR-FRET ligand displacement signal, dose-response replicates (SI Fig 6) / normalized TR-FRET signal (dose-response replicates): listed as Halofuginone (1); for normalized TR-FRET signal (dose-response replicates): SI Fig 15, antibody format
[2] = system: halofuginone-induced P. falciparum (elevated proline homeostasis); assay: P. falciparum ABS growth assay, SYBR Green, 72 h, halofuginone-induced parasites; assay type: cell-based, Plasmodium falciparum; conditions: Halofuginone-Induced
Summary of the method: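 Asexual blood-stage Dd2 parasites, 1% parasitemia/1% hematocrit, RPMI + 0.5% Albumax; triplicate dose-response, 72 h. Readout SYBR Green 1 fluorescence. Controls: 10 μM dihydroartemisinin (kill), no compound (growth). EC50 values determined.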

[3] = system: halofuginone-induced P. falciparum (elevated proline homeostasis); conditions: within five generations (10 days); cited from earlier work
[4] = system: P. falciparum Dd2-2D4; assay: P. falciparum asexual blood stage (ABS) growth assay, SYBR Green, 72 h, wild-type parasites; assay type: cell-based, Plasmodium falciparum; conditions: for parasite growth, replicate wells (Fig 1b): Dd2-2D4
[5] = target: T1, PfcProRS (Plasmodium falciparum, UniProt Q8I5R7); assay type: binding; conditions: for dose-response signal (normalized), SI Fig 8: single replicates, listed as Halofuginone (1)
T1 construct: made in house; host or cells: E. coli SoluBL-21

[6] = Log[inhibitor] (M) -7.602, listed as Halofuginone (1)
[7] = Log[inhibitor] (M) -7.903, listed as Halofuginone (1)
[8] = Log[inhibitor] (M) -8.204, listed as Halofuginone (1)
[9] = Log[inhibitor] (M) -8.806, listed as Halofuginone (1)
[10] = Log[inhibitor] (M) -9.107, listed as Halofuginone (1)
[11] = Log[inhibitor] (M) -9.408, listed as Halofuginone (1)
[12] = Log[inhibitor] (M) -9.709, listed as Halofuginone (1)
[13] = Log[inhibitor] (M) -10.010, listed as Halofuginone (1)
[14] = Log[inhibitor] (M) -10.311, listed as Halofuginone (1)

T1 sequence (Q8I5R7 249-746): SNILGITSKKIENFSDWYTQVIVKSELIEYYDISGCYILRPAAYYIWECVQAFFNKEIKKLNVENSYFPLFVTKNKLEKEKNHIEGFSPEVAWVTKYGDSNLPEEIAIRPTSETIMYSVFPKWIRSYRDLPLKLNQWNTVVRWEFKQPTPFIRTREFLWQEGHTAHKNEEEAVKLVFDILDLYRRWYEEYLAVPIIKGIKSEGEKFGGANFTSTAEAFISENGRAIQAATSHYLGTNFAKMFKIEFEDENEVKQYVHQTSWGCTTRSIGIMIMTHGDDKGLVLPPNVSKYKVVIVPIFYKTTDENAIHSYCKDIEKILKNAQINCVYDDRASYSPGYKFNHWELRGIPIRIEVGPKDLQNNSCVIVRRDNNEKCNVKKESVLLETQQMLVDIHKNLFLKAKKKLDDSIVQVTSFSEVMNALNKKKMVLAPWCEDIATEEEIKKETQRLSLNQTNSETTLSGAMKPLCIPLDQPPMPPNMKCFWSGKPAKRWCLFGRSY
Chain of HsProRS (P07814 996-1512): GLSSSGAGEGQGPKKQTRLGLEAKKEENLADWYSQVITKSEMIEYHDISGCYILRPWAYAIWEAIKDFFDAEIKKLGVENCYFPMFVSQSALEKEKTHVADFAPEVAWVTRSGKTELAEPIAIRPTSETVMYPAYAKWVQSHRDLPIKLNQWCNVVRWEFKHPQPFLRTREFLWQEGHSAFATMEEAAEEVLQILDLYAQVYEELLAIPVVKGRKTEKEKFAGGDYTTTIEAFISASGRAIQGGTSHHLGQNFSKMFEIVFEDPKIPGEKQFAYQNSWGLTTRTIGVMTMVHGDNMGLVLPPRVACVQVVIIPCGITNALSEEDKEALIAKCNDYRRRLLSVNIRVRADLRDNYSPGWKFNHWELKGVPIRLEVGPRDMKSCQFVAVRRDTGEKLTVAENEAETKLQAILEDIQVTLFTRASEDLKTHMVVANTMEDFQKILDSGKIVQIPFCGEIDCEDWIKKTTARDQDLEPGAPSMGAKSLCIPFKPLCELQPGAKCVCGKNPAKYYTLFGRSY

What does the source list for `O=C(CC1NCCCC1O)Cn1cnc2cc(Br)c(Cl)cc2c1=O` (centres unmarked) [Halofuginone]?
TR-FRET dose-response, normalized signal (SI Fig 11) ([1]; Log[inhibitor] (M) -8.311): 9.28E-01 and 9.37E-01 and 9.39E-01; normalized TR-FRET ligand displacement signal, dose-response replicates (SI Fig 6) ([1]; Log[inhibitor] (M) -8.398): 1.06E+00 and 1.03E+00 and 1.05E+00; normalized TR-FRET ligand displacement signal, dose-response replicates (SI Fig 6) ([1]; Log[inhibitor] (M) -8.585): 1.04E+00 and 1.03E+00 and 1.02E+00; normalized TR-FRET signal (Fig 2j) ([1]; Log[inhibitor] (M) -8.612): 1.10E+00 and 1.01E+00 and 9.98E-01; TR-FRET dose-response, normalized signal (SI Fig 11) ([1]; Log[inhibitor] (M) -8.612): 9.43E-01 and 9.93E-01 and 8.80E-01; normalized TR-FRET signal (Fig 2j) ([1]; Log[inhibitor] (M) -8.913): 1.04E+00 and 1.15E+00 and 9.02E-01; TR-FRET dose-response, normalized signal (SI Fig 11) ([1]; Log[inhibitor] (M) -8.913): 9.29E-01 and 9.23E-01 and 1.01E+00; normalized TR-FRET signal (Fig 2j) ([1]; Log[inhibitor] (M) -9.214): 9.13E-01 and 9.87E-01 and 1.00E+00; TR-FRET dose-response, normalized signal (SI Fig 11) ([1]; Log[inhibitor] (M) -9.214): 1.03E+00 and 9.64E-01 and 9.56E-01; normalized TR-FRET signal (dose-response replicates) ([1]; Log[inhibitor] (M) -7): -5.10E-02 and 1.45E-01 and 6.11E-02 and -8.68E-02 and 8.71E-02 and -1.63E-01; normalized TR-FRET signal (dose-response replicates) ([1]; Log[inhibitor] (M) -7.301): -1.11E-01 and 1.65E-02 and 1.81E-01 and 1.03E-01 and -9.48E-02 and 1.44E-01; normalized TR-FRET signal (dose-response replicates) ([1]; Log[inhibitor] (M) -7.602): -2.32E-02 and 2.15E-01 and 1.05E-01 and 1.32E-01 and 1.04E-01 and 2.19E-02; normalized TR-FRET signal (dose-response replicates) ([1]; Log[inhibitor] (M) -7.902): 1.55E-01 and 5.85E-02 and 2.37E-01 and 1.20E-01 and -3.85E-02 and 1.09E-01; normalized TR-FRET signal (dose-response replicates) ([1]; Log[inhibitor] (M) -8.206): 1.08E-02 and 1.11E-01 and 2.70E-01 and 1.81E-01 and 6.79E-02 and 2.75E-01; normalized TR-FRET signal (dose-response replicates) ([1]; Log[inhibitor] (M) -8.507): 1.46E-01 and 1.20E-01 and 1.73E-01 and 3.30E-01 and 1.53E-01 and 2.25E-01; normalized TR-FRET signal (dose-response replicates) ([1]; Log[inhibitor] (M) -8.797): 4.78E-02 and 3.34E-01 and 2.48E-01 and 1.28E-01 and 3.36E-01 and 3.00E-01; normalized TR-FRET signal (dose-response replicates) ([1]; Log[inhibitor] (M) -9.098): 4.47E-01 and 3.74E-01 and 3.80E-01 and 4.11E-01 and 4.02E-01 and 4.65E-01; normalized TR-FRET signal (dose-response replicates) ([1]; Log[inhibitor] (M) -9.407): 2.38E-01 and 7.71E-01 and 7.58E-01 and 8.49E-01 and 6.67E-01 and 6.46E-01; normalized TR-FRET signal (dose-response replicates) ([1]; Log[inhibitor] (M) -9.708): 8.31E-01 and 9.16E-01 and 9.30E-01 and 9.90E-01 and 7.66E-01 and 7.98E-01; normalized TR-FRET signal (dose-response replicates) ([1]; Log[inhibitor] (M) -10.018): 7.34E-01 and 7.78E-01 and 9.27E-01 and 9.57E-01 and 7.69E-01 and 9.42E-01; normalized TR-FRET signal (dose-response replicates) ([1]; Log[inhibitor] (M) -10.319): 1.03E+00 and 8.60E-01 and 1.21E+00 and 9.50E-01 and 1.14E+00 and 9.79E-01; normalized TR-FRET signal (dose-response replicates) ([1]; Log[inhibitor] (M) -10.62): 1.02E+00 and 8.83E-01 and 9.73E-01 and 1.04E+00 and 9.53E-01 and 9.56E-01; normalized TR-FRET signal (dose-response replicates) ([1]; Log[inhibitor] (M) -10.921): 1.01E+00 and 1.12E+00 and 1.14E+00 and 9.45E-01 and 8.05E-01 and 9.06E-01; normalized TR-FRET signal (dose-response replicates) ([1]; Log[inhibitor] (M) -11.098): 9.11E-01 and 1.15E+00 and 1.13E+00 and 1.03E+00 and 9.58E-01 and 9.14E-01; parasite growth, replicate wells (Fig 1b) ([2]; Log[inhibitor] (M) -7.000): 1.00E+00; parasite growth, replicate wells (Fig 1b) ([2]; Log[inhibitor] (M) -7.301): 6.00E+00; parasite growth, replicate wells (Fig 1b) [2, 6]: 2.30E+01 and 2.20E+01 (2×); parasite growth, replicate wells (Fig 1b) [2, 7]: 8.60E+01 (2×) and 9.10E+01; parasite growth, replicate wells (Fig 1b) [2, 8]: 1.04E+02 and 1.02E+02 (2×); parasite growth, replicate wells (Fig 1b) ([2]; Log[inhibitor] (M) -8.505, listed as Halofuginone (1)): 1.05E+02 and 1.03E+02 and 9.50E+01; parasite growth, replicate wells (Fig 1b) [2, 9]: 9.20E+01 and 9.40E+01 and 9.50E+01; parasite growth, replicate wells (Fig 1b) [2, 10]: 9.60E+01 and 9.70E+01 and 9.40E+01; parasite growth, replicate wells (Fig 1b) [2, 11]: 9.80E+01 and 9.60E+01 and 9.50E+01; parasite growth, replicate wells (Fig 1b) [2, 12]: 9.90E+01 and 1.00E+02 and 9.80E+01; parasite growth, replicate wells (Fig 1b) [2, 13]: 1.00E+02 and 9.60E+01 and 9.90E+01; parasite growth, replicate wells (Fig 1b) [2, 14]: 9.90E+01 (2×) and 1.00E+02; tolerance of halofuginone-induced bulk cultures [3]: 10–20 fold; parasite growth, replicate wells (Fig 1b) ([4]; Log[inhibitor] (M) -7.000): 1.00E+00; parasite growth, replicate wells (Fig 1b) ([4]; Log[inhibitor] (M) -7.301): 1.00E+00; parasite growth, replicate wells (Fig 1b) [4, 6]: 0.00E+00 (2×) and 1.00E+00; parasite growth, replicate wells (Fig 1b) [4, 7]: 2.00E+00 (2×) and 0.00E+00; parasite growth, replicate wells (Fig 1b) [4, 8]: 1.00E+00 (2×) and 0.00E+00; parasite growth, replicate wells (Fig 1b) ([4]; Log[inhibitor] (M) -8.505): 0.00E+00; parasite growth, replicate wells (Fig 1b) [4, 9]: 0.00E+00 (2×) and -1.00E+00; parasite growth, replicate wells (Fig 1b) [4, 10]: 5.00E+00 (2×) and 4.00E+00; parasite growth, replicate wells (Fig 1b) [4, 11]: 9.10E+01 and 8.70E+01 and 8.90E+01; parasite growth, replicate wells (Fig 1b) [4, 12]: 1.04E+02 and 1.07E+02 (2×); parasite growth, replicate wells (Fig 1b) [4, 13]: 1.06E+02 and 1.04E+02 (2×); parasite growth, replicate wells (Fig 1b) [4, 14]: 9.80E+01 and 9.90E+01 and 9.70E+01; EC50 ([4]; Plasmodium falciparum, DD2, SI Fig 16b, values on -log scale, read-out: ABS - Dd2-2D4 (converted)): 0.519 nM; binding mode with respect to substrates (ATP, proline) [5]: ATP-uncompetitive binding; fold increased affinity in the presence of ATP ([5]; 500 μM ATP vs 0 μM ATP): > 6000 fold; dose-response signal (normalized), SI Fig 8 ([5]; Log[inhibitor] (M) -5.000): 7.25E-01 and 6.60E-01 and 7.89E-01; dose-response signal (normalized), SI Fig 8 ([5]; Log[inhibitor] (M) -5.258): 8.77E-01 and 7.58E-01 and 8.28E-01; dose-response signal (normalized), SI Fig 8 ([5]; Log[inhibitor] (M) -5.517): 8.36E-01 and 8.59E-01 and 9.08E-01; dose-response signal (normalized), SI Fig 8 ([5]; Log[inhibitor] (M) -5.775): 9.71E-01 and 9.45E-01 and 1.00E+00; dose-response signal (normalized), SI Fig 8 ([5]; Log[inhibitor] (M) -6.018): 9.98E-01 and 1.00E+00 and 1.01E+00; dose-response signal (normalized), SI Fig 8 ([5]; Log[inhibitor] (M) -6.281): 9.70E-01 and 1.00E+00 and 9.36E-01; dose-response signal (normalized), SI Fig 8 ([5]; Log[inhibitor] (M) -6.535): 9.87E-01 and 8.91E-01 and 9.43E-01; dose-response signal (normalized), SI Fig 8 ([5]; Log[inhibitor] (M) -6.796): 1.03E+00 (2×) and 1.00E+00; dose-response signal (normalized), SI Fig 8 ([5]; Log[inhibitor] (M) -7.056): 9.55E-01 and 1.03E+00 (2×); dose-response signal (normalized), SI Fig 8 ([5]; Log[inhibitor] (M) -7.319): 1.02E+00 (2×) and 9.30E-01; dose-response signal (normalized), SI Fig 8 ([5]; Log[inhibitor] (M) -7.553): 9.85E-01 and 1.03E+00 and 9.40E-01; dose-response signal (normalized), SI Fig 8 ([5]; Log[inhibitor] (M) -7.796): 9.66E-01 and 1.04E+00 and 1.00E+00; dose-response signal (normalized), SI Fig 8 ([5]; Log[inhibitor] (M) -8.097): 1.01E+00 and 9.81E-01 and 1.00E+00; dose-response signal (normalized), SI Fig 8 ([5]; Log[inhibitor] (M) -8.398): 9.48E-01 and 1.10E+00 and 1.01E+00; dose-response signal (normalized), SI Fig 8 ([5]; Log[inhibitor] (M) -8.585): 1.08E+00 and 9.61E-01 and 9.66E-01; PfcProRS -- best Kd ([5]; SI Fig 16a, values on -log scale): 9.298
